ChEMBL document CHEMBL3352684, “Discovery of MK-3697: a selective orexin 2 receptor antagonist (2-SORA) for the treatment of insomnia” (Bioorg Med Chem Lett, 2014)
Positions count from the first letter of the chain named. Activity calls are given as the source filed them. No cut-off for these calls is given here.

How the values were obtained:
[1] = Volume of distribution at steady state in dog at 1 mg/kg, iv; assay type: ADME, organism-based, Canis lupus familiaris; set-up: dose 1 mg/kg, route intravenous; conditions: in vivo, read-out: Vdss
[2] = biological target: T1, Orexin receptor type 2 (Canis lupus familiaris) (UniProt Q9TUP7); assay: Antagonist activity at dog OX2R by FLIPR assay
T1 sequence (whole entry): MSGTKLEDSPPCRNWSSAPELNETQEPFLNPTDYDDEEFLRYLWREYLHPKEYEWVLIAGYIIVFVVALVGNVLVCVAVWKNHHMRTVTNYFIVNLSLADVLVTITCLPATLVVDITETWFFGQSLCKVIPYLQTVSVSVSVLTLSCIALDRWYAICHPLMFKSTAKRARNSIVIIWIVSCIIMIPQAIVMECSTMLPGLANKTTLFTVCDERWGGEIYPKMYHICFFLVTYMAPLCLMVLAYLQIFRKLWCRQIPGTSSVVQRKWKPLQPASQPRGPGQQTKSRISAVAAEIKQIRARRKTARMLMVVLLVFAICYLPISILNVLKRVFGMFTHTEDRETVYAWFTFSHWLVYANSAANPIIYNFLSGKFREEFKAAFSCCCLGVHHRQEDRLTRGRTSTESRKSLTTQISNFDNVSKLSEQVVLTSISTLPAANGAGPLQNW

Canis familiaris = assay: Reduction in active wake sleep in dog at 3 mg/kg, po after 2 hrs; assay type: functional, organism-based; set-up: dose 3 mg/kg; conditions: Canis lupus familiaris
Mus musculus [3] = assay: Reduction in active wake sleep in mouse at 100 mg/kg, po after 2 hrs; assay type: functional, organism-based; set-up: dose 100 mg/kg
[4] = AUC in dog at 3 mg/kg, po; assay type: ADME, organism-based, Canis lupus familiaris; set-up: dose 3 mg/kg, route oral; conditions: plasma
[5] = biological target: T2, Orexin/Hypocretin receptor type 1 (Rattus norvegicus) (UniProt P56718); assay: Antagonist activity at Sprague-Dawley rat OX1R by FLIPR assay
T2 sequence (whole entry): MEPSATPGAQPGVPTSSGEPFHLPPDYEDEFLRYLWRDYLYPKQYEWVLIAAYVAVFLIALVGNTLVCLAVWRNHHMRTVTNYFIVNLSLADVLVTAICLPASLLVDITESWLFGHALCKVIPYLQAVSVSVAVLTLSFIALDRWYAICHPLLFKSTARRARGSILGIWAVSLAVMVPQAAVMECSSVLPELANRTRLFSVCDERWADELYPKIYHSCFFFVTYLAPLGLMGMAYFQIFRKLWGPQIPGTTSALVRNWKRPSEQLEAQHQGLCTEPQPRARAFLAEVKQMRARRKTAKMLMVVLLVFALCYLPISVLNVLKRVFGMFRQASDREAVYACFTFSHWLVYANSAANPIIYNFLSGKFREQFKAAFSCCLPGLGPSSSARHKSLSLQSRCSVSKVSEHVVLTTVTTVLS

[6] = Clearance in dog at 1 mg/kg, iv; assay type: ADME, organism-based, Canis lupus familiaris; set-up: dose 1 mg/kg, route intravenous; conditions: in vivo
[7] = biological target: T3, Nuclear receptor subfamily 1 group I member 2 (Homo sapiens, UniProt O75469); assay: Activation of PXR (unknown origin) at 30 uM relative to rifampicin
T3 sequence (O75469 whole entry): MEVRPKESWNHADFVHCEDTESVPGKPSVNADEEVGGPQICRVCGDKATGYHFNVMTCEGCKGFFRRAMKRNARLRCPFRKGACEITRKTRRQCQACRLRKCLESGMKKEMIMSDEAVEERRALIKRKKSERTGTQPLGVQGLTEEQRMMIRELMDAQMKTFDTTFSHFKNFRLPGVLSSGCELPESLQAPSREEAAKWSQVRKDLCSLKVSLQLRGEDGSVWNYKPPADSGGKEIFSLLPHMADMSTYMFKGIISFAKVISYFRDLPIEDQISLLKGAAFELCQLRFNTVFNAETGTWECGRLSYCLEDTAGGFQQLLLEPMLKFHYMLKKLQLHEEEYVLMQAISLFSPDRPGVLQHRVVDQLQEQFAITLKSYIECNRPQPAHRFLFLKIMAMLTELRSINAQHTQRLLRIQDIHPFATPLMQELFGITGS

[8] = Clearance in rat at 2 mg/kg, iv; assay type: ADME, organism-based; set-up: dose 2 mg/kg, route intravenous; conditions: in vivo
Rattus norvegicus [9] = species on record: Rattus norvegicus; assay: Ex vivo receptor occupancy at human OX2R expressed in transgenic rat at plasma concentration of 1.06 uM; assay type: functional
[10] = AUC in Sprague-Dawley rat at 15 mg/kg, po; assay type: ADME, organism-based; set-up: dose 15 mg/kg, route oral; conditions: plasma
[11] = Cmax in Sprague-Dawley rat at 15 mg/kg, po; assay type: ADME, organism-based; set-up: dose 15 mg/kg, route oral; conditions: in vivo
[12] = Volume of distribution at steady state in rat at 2 mg/kg, iv; assay type: ADME, organism-based; set-up: dose 2 mg/kg, route intravenous; conditions: in vivo, read-out: Vdss
[13] = AUC (0 to infinity) in dog at 3 mg/kg, po; assay type: ADME, organism-based, Canis lupus familiaris; set-up: time infinity, dose 3 mg/kg, route oral; conditions: plasma
Mus musculus [14] = assay: Reduction in active wake sleep in OX2R-knockout mouse at 100 mg/kg, po after 2 hrs; assay type: functional, organism-based; set-up: dose 100 mg/kg
Cytochrome P450 2D6 = Cytochrome P450 2D6 (Homo sapiens, UniProt P10635); assay: Reversible inhibition of CYP2D6 (unknown origin); assay type: ADME
[15] = Cmax in rat at dog at 3 mg/kg, po; assay type: ADME, organism-based, Canis lupus familiaris; set-up: dose 3 mg/kg, route oral; conditions: in vivo
Orexin receptor type 2 [16] = biological target: T4, Orexin receptor type 2 (Homo sapiens, UniProt O43614); assay: Antagonist activity at human OX2R expressed in CHO cells assessed as inhibition of Ala-6,12-orexinA-induced effect after 5 mins by FLIPR assay; assay type: cell-based
T4 sequence (O43614 whole entry): T1 sequence (whole entry) with P19S, V70I, M196V, L197F, A272V, Q281P, I286M, V308I, T334A, V417I

Orexin receptor type 2 [17] = biological target: T4, Orexin receptor type 2; assay: Displacement of (S)-N-(2-(1H-pyrrol-1-yl)phenyl)-1-(2-([3H]-1-methyl-1H-benzo[d]imidazol-2-ylthio)acetyl)pyrrolidine-2-carboxamide from human OX2R expressed in CHO cells after 3 hrs by topcount analysis; assay type: cell-based
[18] = Drug uptake in mouse CSF at 100 mg/kg, po after 2 hrs; assay type: ADME, organism-based; set-up: dose 100 mg/kg, route oral; conditions: cerebrospinal fluid, read-out: Drug uptake
Cytochrome P450 2C9 = Cytochrome P450 2C9 (Homo sapiens, UniProt P11712); assay: Reversible inhibition of CYP2C9 (unknown origin); assay type: ADME
Canis lupus familiaris = species on record: Canis lupus familiaris; assay: Antagonist activity at dog OX1R by FLIPR assay
Rattus norvegicus [19] = assay: Reduction in active wake sleep in Sprague-Dawley rat at 15 mg/kg, po after 2 hrs; assay type: functional, organism-based; set-up: dose 15 mg/kg
[20] = Plasma protein binding in dog; assay type: ADME, cell-free, Canis lupus familiaris; conditions: read-out: PPB (converted)
[21] = Drug uptake in dog CSF at 3 mg/kg, po; assay type: ADME, organism-based, Canis lupus familiaris, Cerebrospinal fluid; set-up: dose 3 mg/kg, route oral; conditions: in vivo, read-out: Drug uptake
[22] = Plasma protein binding in Sprague-Dawley rat; assay type: ADME, cell-free; conditions: read-out: PPB (converted)
[23] = Tmax in mouse at 100 mg/kg, po; assay type: ADME, organism-based; set-up: dose 100 mg/kg, route oral; conditions: in vivo
[24] = Plasma protein binding in human; assay type: ADME, cell-free; conditions: read-out: PPB (converted)

Chain of Cytochrome P450 2C9 (P11712 whole entry): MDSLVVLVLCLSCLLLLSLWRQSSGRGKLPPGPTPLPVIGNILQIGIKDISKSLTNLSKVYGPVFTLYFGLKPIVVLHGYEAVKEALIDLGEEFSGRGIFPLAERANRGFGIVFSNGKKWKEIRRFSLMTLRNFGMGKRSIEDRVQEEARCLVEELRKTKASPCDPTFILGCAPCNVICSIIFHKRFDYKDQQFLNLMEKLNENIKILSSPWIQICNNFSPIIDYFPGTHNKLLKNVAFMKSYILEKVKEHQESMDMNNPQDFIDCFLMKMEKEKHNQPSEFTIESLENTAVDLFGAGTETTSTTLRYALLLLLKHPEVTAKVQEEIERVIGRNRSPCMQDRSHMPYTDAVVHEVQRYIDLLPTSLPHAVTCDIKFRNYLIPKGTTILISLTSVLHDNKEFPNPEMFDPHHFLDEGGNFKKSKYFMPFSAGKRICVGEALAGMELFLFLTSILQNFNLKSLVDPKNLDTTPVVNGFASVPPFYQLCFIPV
Chain of Cytochrome P450 2D6 (P10635 whole entry): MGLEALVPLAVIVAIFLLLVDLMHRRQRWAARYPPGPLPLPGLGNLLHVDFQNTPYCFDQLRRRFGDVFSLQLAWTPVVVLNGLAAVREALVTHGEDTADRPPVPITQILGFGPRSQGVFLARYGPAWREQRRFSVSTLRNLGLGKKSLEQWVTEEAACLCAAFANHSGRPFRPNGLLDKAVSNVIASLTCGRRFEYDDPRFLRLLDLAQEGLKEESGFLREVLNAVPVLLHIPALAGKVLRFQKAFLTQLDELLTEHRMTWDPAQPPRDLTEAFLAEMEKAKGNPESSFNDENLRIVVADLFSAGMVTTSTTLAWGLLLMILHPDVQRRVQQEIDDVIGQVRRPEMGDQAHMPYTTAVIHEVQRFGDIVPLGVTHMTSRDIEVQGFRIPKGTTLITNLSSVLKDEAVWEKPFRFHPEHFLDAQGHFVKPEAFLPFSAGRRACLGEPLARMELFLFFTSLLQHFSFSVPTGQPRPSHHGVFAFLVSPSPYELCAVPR

## COc1ccc(CNC(=O)c2cc(-c3cncc(C)c3)ncc2-c2nccs2)nc1OC
[1]
  Vd: 0.7 L/kg
[2]
  INH: 16 nM
Canis familiaris
  Activity: Active
Mus musculus [3]
  Activity: Active
[4]
  AUC: 9 µM·h
[5]
  INH: 36.4 µM
[6]
  clearance: 7.2 mL/min/kg
[7]
  Activity: 16%
[8]
  clearance: 40.7 mL/min/kg
Rattus norvegicus [9]
  Occ: 90%
[10]
  AUC: 17.2 µM·h
[11]
  Cmax: 5.3 µM
[12]
  Vd: 1.2 L/kg
[13]
  AUC(0-inf): 7.5 µM·h
Mus musculus [14]
  Activity: inactive
Cytochrome P450 2D6
  IC50: > 50000 nM
[15]
  Cmax: 2.1 µM
Orexin receptor type 2 [16]
  IC50: 16 nM
Orexin receptor type 2 [17]
  Ki: 1.1 nM
[18]
  concentration at 2 h: 4.9 µM
Cytochrome P450 2C9
  IC50: > 50000 nM
Canis lupus familiaris
  INH: 10 µM
Rattus norvegicus [19]
  Activity: Active
[20]
  fraction unbound: 0.169
[21]
  concentration: 0.46 µM
[22]
  fraction unbound: 0.164
[23]
  Tmax: 2 h
[24]
  fraction unbound: 0.04
